Experimental data as given in ChEMBL document CHEMBL1909046, “DrugMatrix in vitro pharmacology data”.

Experiments:
[1] = molecular target: T1, Receptor-type tyrosine-protein phosphatase C (Homo sapiens, UniProt P08575); design: species or system Escherichia coli;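 note: inhibition of CD45 enzyme activity measured using DiFMUP as substrate; in other assays of this panel Not Active means under 50% inhibition at 10 µM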
T1 sequence (P08575 whole entry): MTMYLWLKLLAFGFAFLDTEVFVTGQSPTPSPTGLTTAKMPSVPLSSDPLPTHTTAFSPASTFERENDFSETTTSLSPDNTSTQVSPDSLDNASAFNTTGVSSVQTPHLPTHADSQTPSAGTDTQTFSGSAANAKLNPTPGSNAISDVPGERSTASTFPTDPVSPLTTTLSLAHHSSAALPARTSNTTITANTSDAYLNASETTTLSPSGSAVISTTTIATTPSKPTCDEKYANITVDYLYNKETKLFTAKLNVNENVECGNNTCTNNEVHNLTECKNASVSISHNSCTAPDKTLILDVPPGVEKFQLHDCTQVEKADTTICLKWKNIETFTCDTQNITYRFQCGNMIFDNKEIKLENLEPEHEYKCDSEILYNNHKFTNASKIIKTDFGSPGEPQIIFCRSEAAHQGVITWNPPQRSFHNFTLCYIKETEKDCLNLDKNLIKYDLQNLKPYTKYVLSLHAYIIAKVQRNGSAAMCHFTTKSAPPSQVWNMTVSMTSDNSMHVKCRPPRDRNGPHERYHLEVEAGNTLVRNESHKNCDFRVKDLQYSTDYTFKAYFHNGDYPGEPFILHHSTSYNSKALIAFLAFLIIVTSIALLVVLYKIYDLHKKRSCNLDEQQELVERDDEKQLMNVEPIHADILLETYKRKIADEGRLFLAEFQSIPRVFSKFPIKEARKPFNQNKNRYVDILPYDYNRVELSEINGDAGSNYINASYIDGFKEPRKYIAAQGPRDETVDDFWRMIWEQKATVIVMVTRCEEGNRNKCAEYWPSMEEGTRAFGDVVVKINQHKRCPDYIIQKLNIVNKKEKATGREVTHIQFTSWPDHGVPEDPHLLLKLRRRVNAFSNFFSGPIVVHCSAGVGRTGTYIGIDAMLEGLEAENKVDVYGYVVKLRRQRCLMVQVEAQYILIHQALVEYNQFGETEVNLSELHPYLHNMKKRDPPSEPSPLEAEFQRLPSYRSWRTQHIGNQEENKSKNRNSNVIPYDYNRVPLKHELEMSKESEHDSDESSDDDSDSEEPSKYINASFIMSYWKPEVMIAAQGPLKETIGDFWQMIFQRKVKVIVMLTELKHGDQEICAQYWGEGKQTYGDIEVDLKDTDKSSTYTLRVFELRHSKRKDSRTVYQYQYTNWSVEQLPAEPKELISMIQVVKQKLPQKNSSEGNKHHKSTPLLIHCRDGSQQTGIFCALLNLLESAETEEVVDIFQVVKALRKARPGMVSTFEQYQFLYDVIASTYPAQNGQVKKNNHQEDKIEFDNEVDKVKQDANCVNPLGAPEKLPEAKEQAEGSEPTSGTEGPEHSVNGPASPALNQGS

[2] = DRUGMATRIX: Phorbol Ester radioligand binding (ligand: [3H] PDBu); assay type: cell membranes, Mus musculus, ICR, Brain, Membrane; settings: Not Active = under 50% inhibition at 10 µM
[3] = molecular target: Kappa-type opioid receptor (Homo sapiens, UniProt P41145); experiment: DRUGMATRIX: Opiate kappa (OP2, KOP) radioligand binding (ligand: [3H] Diprenorphine); assay type: cell membranes, HEK293, Membrane; settings: hek293; Not Active = under 50% inhibition at 10 µM
[4] = DRUGMATRIX: Calcium Channel Type L, Phenylalkylamine radioligand binding (ligand: [3H] (-)-Desmethoxyverapamil (D-888)); assay type: cell membranes, Rattus norvegicus, Wistar, Brain, Membrane; settings: Not Active = under 50% inhibition at 10 µM
[5] = molecular target: T2, Nitric oxide synthase, inducible (Mus musculus, UniProt P29477); design: species or system Escherichia coli;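 note: inhibition of iNOS enzyme activity measured with L-arginine as substrate; in other assays of this panel Not Active means under 50% inhibition at 10 µM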
T2 sequence (P29477 whole entry): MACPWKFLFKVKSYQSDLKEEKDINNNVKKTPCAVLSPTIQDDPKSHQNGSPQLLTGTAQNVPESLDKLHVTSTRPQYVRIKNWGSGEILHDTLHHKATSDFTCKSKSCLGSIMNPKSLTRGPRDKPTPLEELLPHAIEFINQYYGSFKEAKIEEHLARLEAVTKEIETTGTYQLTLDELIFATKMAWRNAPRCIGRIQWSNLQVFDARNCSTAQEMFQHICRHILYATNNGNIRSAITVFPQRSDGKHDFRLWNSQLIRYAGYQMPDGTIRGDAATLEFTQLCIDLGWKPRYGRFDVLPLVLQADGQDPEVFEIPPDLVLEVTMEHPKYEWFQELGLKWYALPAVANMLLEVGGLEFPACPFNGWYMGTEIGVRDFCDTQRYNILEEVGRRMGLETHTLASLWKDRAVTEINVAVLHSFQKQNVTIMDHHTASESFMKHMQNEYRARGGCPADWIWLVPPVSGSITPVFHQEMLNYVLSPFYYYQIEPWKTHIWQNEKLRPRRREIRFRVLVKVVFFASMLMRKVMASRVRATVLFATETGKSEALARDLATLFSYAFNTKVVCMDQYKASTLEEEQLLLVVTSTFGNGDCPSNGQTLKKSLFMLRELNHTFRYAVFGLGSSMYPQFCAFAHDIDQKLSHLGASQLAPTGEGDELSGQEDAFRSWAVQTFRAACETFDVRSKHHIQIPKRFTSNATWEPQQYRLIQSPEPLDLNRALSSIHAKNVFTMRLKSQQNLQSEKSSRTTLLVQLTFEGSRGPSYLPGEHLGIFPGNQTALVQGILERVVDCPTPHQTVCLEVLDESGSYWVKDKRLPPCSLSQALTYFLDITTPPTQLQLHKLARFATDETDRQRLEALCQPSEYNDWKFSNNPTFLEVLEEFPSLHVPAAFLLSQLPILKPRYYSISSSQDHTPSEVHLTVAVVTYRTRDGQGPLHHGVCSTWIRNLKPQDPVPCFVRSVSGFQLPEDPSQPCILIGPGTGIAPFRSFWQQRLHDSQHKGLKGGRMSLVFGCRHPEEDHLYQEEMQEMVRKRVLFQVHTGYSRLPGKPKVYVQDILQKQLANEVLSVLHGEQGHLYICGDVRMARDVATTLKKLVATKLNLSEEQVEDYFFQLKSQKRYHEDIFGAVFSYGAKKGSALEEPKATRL

[6] = DRUGMATRIX: GABAA, Muscimol, Central radioligand binding (ligand: [3H] Muscimol); assay type: cell membranes, Rattus norvegicus, Wistar, Brain, Membrane; settings: Not Active = under 50% inhibition at 10 µM
[7] = DRUGMATRIX: Sodium/nucleoside co-transporter radioligand binding (ligand: nitrobenzylthioinosine); assay type: cell membranes, Cavia porcellus, Dunkin-Hartley, Cerebral cortex, Membrane; settings: Not Active = under 50% inhibition at 10 µM
[8] = molecular target: Mitogen-activated protein kinase 3 (Homo sapiens, UniProt P27361); experiment: DRUGMATRIX: Protein Serine/Threonine Kinase, ERK1 enzyme inhibition (substrate: Myelin Basic Protein); design: species or system Escherichia coli; settings: Not Active = under 50% inhibition at 10 µM
Mitogen-activated protein kinase 3, sequence (P27361 whole entry): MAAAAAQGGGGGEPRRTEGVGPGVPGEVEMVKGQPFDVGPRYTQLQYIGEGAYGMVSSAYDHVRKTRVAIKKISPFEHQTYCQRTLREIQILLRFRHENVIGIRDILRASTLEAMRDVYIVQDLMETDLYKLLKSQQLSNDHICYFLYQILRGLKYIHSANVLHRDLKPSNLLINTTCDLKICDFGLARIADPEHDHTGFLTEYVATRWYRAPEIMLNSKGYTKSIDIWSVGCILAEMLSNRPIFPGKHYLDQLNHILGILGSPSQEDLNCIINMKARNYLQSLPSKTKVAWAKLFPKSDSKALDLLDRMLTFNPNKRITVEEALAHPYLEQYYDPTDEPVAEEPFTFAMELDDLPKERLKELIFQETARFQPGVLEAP

Kappa-type opioid receptor, sequence (P41145 whole entry): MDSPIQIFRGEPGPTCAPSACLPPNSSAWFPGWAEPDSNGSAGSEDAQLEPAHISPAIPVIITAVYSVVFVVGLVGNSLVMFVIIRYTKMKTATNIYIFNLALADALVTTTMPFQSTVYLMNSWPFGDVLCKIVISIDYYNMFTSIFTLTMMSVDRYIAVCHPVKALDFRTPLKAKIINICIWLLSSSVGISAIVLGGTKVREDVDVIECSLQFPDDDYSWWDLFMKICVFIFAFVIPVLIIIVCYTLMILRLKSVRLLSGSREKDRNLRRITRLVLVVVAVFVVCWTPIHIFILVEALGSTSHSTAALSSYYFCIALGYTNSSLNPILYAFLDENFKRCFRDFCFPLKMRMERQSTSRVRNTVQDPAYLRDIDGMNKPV

C[C@](O)(CS(=O)(=O)c1ccc(F)cc1)C(=O)Nc1ccc(C#N)c(C(F)(F)F)c1 [(R)-BICALUTAMIDE]
Not Active: IC50 [1] | IC50 [2] | Ki [2] | IC50 [3] | IC50 [4] | Ki [4] | IC50 [5] | IC50 [6] | Ki [6] | IC50 [7] | Ki [7] | IC50 [8]

CCCC(=O)Nc1ccc(OCC(O)CNC(C)C)c(C(C)=O)c1 (centres undefined) [ACEBUTOLOL]
Not Active: IC50 [1] | IC50 [2] | Ki [2] | IC50 [3] | IC50 [4] | Ki [4] | IC50 [5] | IC50 [6] | Ki [6] | IC50 [7] | Ki [7] | IC50 [8]

COc1cc2c(c3oc(=O)c4c(c13)CCC4=O)[C@@H]1C=CO[C@@H]1O2 [AFLATOXIN]
Not Active: IC50 [1] | Ki [1] | IC50 [2] | Ki [2] | IC50 [3] | Ki [3] | IC50 [4] | Ki [4] | IC50 [5] | Ki [5] | IC50 [6] | Ki [6] | IC50 [7] | Ki [7] | IC50 [8] | Ki [8]

N=C(N)NC(=O)c1nc(Cl)c(N)nc1N [AMILORIDE]
Not Active: IC50 [1] | IC50 [2] | Ki [2] | IC50 [3] | IC50 [4] | Ki [4] | IC50 [5] | IC50 [6] | Ki [6] | IC50 [7] | Ki [7] | IC50 [8]

Cc1cc(=O)n(-c2ccccc2)n1C [ANTIPYRINE]
Not Active: IC50 [1] | IC50 [2] | Ki [2] | IC50 [3] | IC50 [4] | Ki [4] | IC50 [5] | IC50 [6] | Ki [6] | IC50 [7] | Ki [7] | IC50 [8]

CN1C(=O)COc2c(C(=O)NC3CN4CCC3CC4)cc(Cl)cc21 (centres undefined) [AZASETRON]
Not Active: IC50 [1] | IC50 [2] | Ki [2] | IC50 [3] | IC50 [4] | Ki [4] | IC50 [5] | IC50 [6] | Ki [6] | IC50 [7] | Ki [7] | IC50 [8]

C[C@H]1C[C@H]2[C@@H]3CCC4=CC(=O)C=C[C@]4(C)[C@@]3(Cl)[C@@H](O)C[C@]2(C)[C@@]1(O)C(=O)CO [BECLOMETHASONE]
Not Active: IC50 [1] | IC50 [2] | Ki [2] | IC50 [3] | IC50 [4] | Ki [4] | IC50 [5] | IC50 [6] | Ki [6] | IC50 [7] | Ki [7] | IC50 [8]

CCOC(=O)[C@H](CCc1ccccc1)N[C@H]1CCc2ccccc2N(CC(=O)O)C1=O [BENAZEPRIL]
Not Active: IC50 [1] | IC50 [2] | Ki [2] | IC50 [3] | IC50 [4] | Ki [4] | IC50 [5] | IC50 [6] | Ki [6] | IC50 [7] | Ki [7] | IC50 [8]

Nc1c(CC(=O)O)cccc1C(=O)c1ccc(Br)cc1 [BROMFENAC]
Not Active: IC50 [1] | IC50 [2] | Ki [2] | IC50 [3] | IC50 [4] | Ki [4] | IC50 [5] | IC50 [6] | Ki [6] | IC50 [7] | Ki [7] | IC50 [8]

CCCCN1CCCCC1C(=O)Nc1c(C)cccc1C.Cl (centres undefined) [BUPIVACAINE HYDROCHLORIDE]
Not Active: IC50 [1] | IC50 [2] | Ki [2] | IC50 [3] | IC50 [4] | Ki [4] | IC50 [5] | IC50 [6] | Ki [6] | IC50 [7] | Ki [7] | IC50 [8]
